Consider three molecules from BindingDB's records for doi:10.1021/jm00040a015 (Pfizer, 1994).

The target of the assay is cAMP-dependent protein kinase catalytic subunit alpha (Bos taurus, UniProt P00517). Nature of the assay: PKA Inhibition Assay. The source says:
IC50 is the inhibitor concentration, which inhibits 50% of PKA activity that catalyzes the transfer of the terminal phosphate from [gamma-32P] labeled ATP to a synthetic kemptide peptide substrate.

Regarding `O=S(=O)(c1ccccc1)n1c2cc(O)c(O)cc2c2cc(O)c(O)cc21` [9-(benzenesulfonyl)-9H-carbazole-2,3,6,7-tetrol], the IC50 was > 600 µM.
In the case of `CCn1c(=O)c2cc(O)c(O)cc2c2cc(O)c(O)cc21` [5-ethyl-2,3,8,9-tetrahydroxy-5,6-dihydrophenanthridin-6-one], the IC50 (pH 7.4, 30 °C) is > 2000 µM.
Regarding `Oc1cc2nc(O)c3cc(O)c(O)cc3c2cc1O` [2,3,8,9-tetrahydroxy-5,6-dihydrophenanthridin-6-one], the IC50 (pH 7.4, 30 °C) is > 800 µM.

Broadly, the IC50 is the concentration needed to halve the response being measured.
